Our source for the mutagenic call values is PubChem BioAssay AID1259407 (Chemical Carcinogenesis Research Information System (CCRIS), 2018).

Each structure is given as a SMILES string. The source made the active and inactive calls. The rule behind the calls is not given here.

In this data set the test system is CCRIS mutagenicity, Ames/micronucleus/aberration tests. Briefly: CCRIS mutagenicity studies.
Setting [1] is: Test System: AMES SALMONELLA TYPHIMURIUM, Strain/Indicator: TA98, Metabolic Activation: NONE, Method: STANDARD PLATE.
[2] abbreviates: Test System: AMES SALMONELLA TYPHIMURIUM, Strain/Indicator: TA98, Metabolic Activation: RAT, LIVER, S-9, AROCLOR 1254, Method: STANDARD PLATE.
The mark [3] stands for this setting: Test System: AMES SALMONELLA TYPHIMURIUM, Strain/Indicator: TA97, Metabolic Activation: NONE, Method: STANDARD PLATE.
[4] abbreviates: Test System: AMES SALMONELLA TYPHIMURIUM, Strain/Indicator: TA100, Metabolic Activation: NONE, Method: STANDARD PLATE.
The mark [5] stands for this setting: Test System: AMES SALMONELLA TYPHIMURIUM, Strain/Indicator: TA102, Metabolic Activation: NONE, Method: STANDARD PLATE.
[6] abbreviates: Test System: AMES SALMONELLA TYPHIMURIUM, Strain/Indicator: TA98, Metabolic Activation: NONE, Method: PREINCUBATION

Turning to `O=c1oc2c([N+](=O)[O-])cccc2c2ccccc12`, the mutagenic call was “active; positive” (Test System: AMES SALMONELLA TYPHIMURIUM, Strain/Indicator: TA98(1,8-DNP6), Metabolic Activation: NONE, Method: MICROSUSPENSION); “active; positive” (Test System: AMES SALMONELLA TYPHIMURIUM, Strain/Indicator: TA98(1,8-DNP6), Metabolic Activation: NONE, Method: STANDARD PLATE); “active; positive” (Test System: AMES SALMONELLA TYPHIMURIUM, Strain/Indicator: TA98(NR), Metabolic Activation: NONE, Method: MICROSUSPENSION); “inactive; negative” (Test System: AMES SALMONELLA TYPHIMURIUM, Strain/Indicator: TA98(NR), Metabolic Activation: NONE, Method: STANDARD PLATE); “active; positive” (Test System: AMES SALMONELLA TYPHIMURIUM, Strain/Indicator: TA98(NR), Metabolic Activation: RAT, LIVER, S-9, AROCLOR 1254, Method: STANDARD PLATE); “active; positive” (Test System: AMES SALMONELLA TYPHIMURIUM, Strain/Indicator: TA98, Metabolic Activation: NONE, Method: MICROSUSPENSION). For the same compound, the mutagenic call under setting [1] was “active; positive”; the mutagenic call (Test System: AMES SALMONELLA TYPHIMURIUM, Strain/Indicator: TA98, Metabolic Activation: RAT, LIVER, S-9, AROCLOR 1254, Method: MICROSUSPENSION) is “active; positive”; the mutagenic call under setting [2] was “active; positive”.

Turning to `Cc1nc2c(c3[nH]c4ccccc4c13)C(=O)C(N1CCN(C)CC1)=CC2=O`, the mutagenic call under setting [3] is “inactive; negative”; the mutagenic call (Test System: AMES SALMONELLA TYPHIMURIUM, Strain/Indicator: TA97, Metabolic Activation: RAT, LIVER, S-9, AROCLOR 1254, Method: STANDARD PLATE) is “inactive; negative”; the mutagenic call under setting [1] is “inactive; negative”; the mutagenic call under setting [2] is “inactive; negative”; the mutagenic call under setting [4] was “active; positive”; the mutagenic call (Test System: AMES SALMONELLA TYPHIMURIUM, Strain/Indicator: TA100, Metabolic Activation: RAT, LIVER, S-9, AROCLOR 1254, Method: STANDARD PLATE) was “inactive; negative”. The mutagenic call reads like this: under setting [5], “inactive; negative”; (Test System: AMES SALMONELLA TYPHIMURIUM, Strain/Indicator: TA102, Metabolic Activation: RAT, LIVER, S-9, AROCLOR 1254, Method: STANDARD PLATE) “inactive; negative”.

On to `Fc1ccc2ncccc2c1F`, for which, under “Test System: AMES SALMONELLA TYPHIMURIUM, Strain/Indicator: TA100, Metabolic Activation: RAT LIVER S-9, PHENOBARBITAL AND 5,6-BENZOFLAVONE, Method: PREINCUBATION”, the mutagenic call was “active; positive”.

Consider `C[C@]12C/C(=C/O)C(=O)C[C@@H]1CC[C@@H]1[C@@H]2CC[C@@]2(C)[C@H]1CC[C@]2(C)O`, for which the mutagenic call is, setting by setting: (Test System: AMES SALMONELLA TYPHIMURIUM, Strain/Indicator: TA97, Metabolic Activation: HAMSTER, LIVER, S-9, AROCLOR 1254 (10 OR 30%), Method: PREINCUBATION) “inactive; negative”; (Test System: AMES SALMONELLA TYPHIMURIUM, Strain/Indicator: TA97, Metabolic Activation: NONE, Method: PREINCUBATION) “inactive; negative”; (Test System: AMES SALMONELLA TYPHIMURIUM, Strain/Indicator: TA97, Metabolic Activation: RAT, LIVER, S-9, AROCLOR 1254 (10 OR 30%), Method: PREINCUBATION) “inactive; negative”; (Test System: AMES SALMONELLA TYPHIMURIUM, Strain/Indicator: TA98, Metabolic Activation: HAMSTER, LIVER, S-9, AROCLOR 1254 (10 OR 30%), Method: PREINCUBATION) “inactive; negative”; under setting [6], “inactive; negative”; under setting [1], “inactive; negative”. The mutagenic call runs as follows: (Test System: AMES SALMONELLA TYPHIMURIUM, Strain/Indicator: TA98, Metabolic Activation: RAT LIVER S-9, AROCLOR 1254, 10%, Method: STANDARD PLATE) “inactive; negative”; (Test System: AMES SALMONELLA TYPHIMURIUM, Strain/Indicator: TA98, Metabolic Activation: RAT, LIVER, S-9, AROCLOR 1254 (10 OR 30%), Method: PREINCUBATION) “inactive; negative”; (Test System: AMES SALMONELLA TYPHIMURIUM, Strain/Indicator: TA100, Metabolic Activation: HAMSTER, LIVER, S-9, AROCLOR 1254 (10 OR 30%), Method: PREINCUBATION) “inactive; negative”; (Test System: AMES SALMONELLA TYPHIMURIUM, Strain/Indicator: TA100, Metabolic Activation: NONE, Method: PREINCUBATION) “inactive; negative”; under setting [4], “inactive; negative”; (Test System: AMES SALMONELLA TYPHIMURIUM, Strain/Indicator: TA100, Metabolic Activation: RAT LIVER S-9, AROCLOR 1254, 10%, Method: STANDARD PLATE) “inactive; negative”. The mutagenic call by setting is: (Test System: AMES SALMONELLA TYPHIMURIUM, Strain/Indicator: TA100, Metabolic Activation: RAT, LIVER, S-9, AROCLOR 1254 (10 OR 30%), Method: PREINCUBATION) “inactive; negative”; (Test System: AMES SALMONELLA TYPHIMURIUM, Strain/Indicator: TA1535, Metabolic Activation: HAMSTER, LIVER, S-9, AROCLOR 1254 (10 OR 30%), Method: PREINCUBATION) “inactive; negative”; (Test System: AMES SALMONELLA TYPHIMURIUM, Strain/Indicator: TA1535, Metabolic Activation: NONE, Method: PREINCUBATION) “inactive; negative”; (Test System: AMES SALMONELLA TYPHIMURIUM, Strain/Indicator: TA1535, Metabolic Activation: NONE, Method: STANDARD PLATE) “inactive; negative”; (Test System: AMES SALMONELLA TYPHIMURIUM, Strain/Indicator: TA1535, Metabolic Activation: RAT LIVER S-9, AROCLOR 1254, 10%, Method: STANDARD PLATE) “inactive; negative”; (Test System: AMES SALMONELLA TYPHIMURIUM, Strain/Indicator: TA1535, Metabolic Activation: RAT, LIVER, S-9, AROCLOR 1254 (10 OR 30%), Method: PREINCUBATION) “inactive; negative”. Further, the mutagenic call is, setting by setting: (Test System: AMES SALMONELLA TYPHIMURIUM, Strain/Indicator: TA1537, Metabolic Activation: NONE, Method: STANDARD PLATE) “inactive; negative”; (Test System: AMES SALMONELLA TYPHIMURIUM, Strain/Indicator: TA1537, Metabolic Activation: RAT LIVER S-9, AROCLOR 1254, 10%, Method: STANDARD PLATE) “inactive; negative”; (Test System: ESCHERICHIA COLI, Strain/Indicator: WP2 UVRA, Metabolic Activation: NONE, Method: STANDARD PLATE) “inactive; negative”; (Test System: ESCHERICHIA COLI, Strain/Indicator: WP2 UVRA, Metabolic Activation: RAT LIVER S-9, AROCLOR 1254, 10%, Method: STANDARD/PLATE) “inactive; negative”; (Test System: MOUSE LYMPHOMA, Strain/Indicator: L5178Y (TK+/TK-), Metabolic Activation: NONE, Method: SUSPENSION PLATE) “inactive; negative”; (Test System: MOUSE LYMPHOMA, Strain/Indicator: L5178Y (TK+/TK-), Metabolic Activation: RAT LIVER S-9, AROCLOR 1254, 3%, NADP, ISOCITRATE, Method: SUSPENSION/PLATE) “inactive; negative”.

`CCCCNC(=O)C=Cc1ccc([N+](=O)[O-])o1`: under setting [6], the mutagenic call is “active; positive”.

In the case of `O=C(NO)c1ccc(O)c(O)c1`, the mutagenic call is “inactive; negative” under setting [3]; “active; positive” (Test System: AMES SALMONELLA TYPHIMURIUM, Strain/Indicator: TA97, Metabolic Activation: RAT, LIVER, S-9, DELOR 103, Method: STANDARD PLATE); “inactive; negative” under setting [1]; “inactive; negative” (Test System: AMES SALMONELLA TYPHIMURIUM, Strain/Indicator: TA98, Metabolic Activation: RAT, LIVER, S-9, DELOR 103, Method: STANDARD PLATE); “inactive; negative” under setting [4]; “inactive; negative” (Test System: AMES SALMONELLA TYPHIMURIUM, Strain/Indicator: TA100, Metabolic Activation: RAT, LIVER, S-9, DELOR 103, Method: STANDARD PLATE). For the same compound, the mutagenic call was “inactive; negative” under setting [5] and “inactive; negative” (Test System: AMES SALMONELLA TYPHIMURIUM, Strain/Indicator: TA102, Metabolic Activation: RAT, LIVER, S-9, DELOR 103, Method: STANDARD PLATE).
